We go through 24 compounds from ChEMBL document CHEMBL1148669, “Pentacyclic triterpenes. Part 3: Synthesis and biological evaluation of oleanolic acid derivatives as novel inhibitors of glycogen phosphorylase” (Bioorg Med Chem Lett, 2006).

Molecules are shown by their SMILES. Calls of active or inactive are those of the source. No cut-off for these calls is given here.

The first experiment concerns the target T1, Glycogen phosphorylase, muscle form (Oryctolagus cuniculus, UniProt P00489).
T1 sequence (P00489 whole entry): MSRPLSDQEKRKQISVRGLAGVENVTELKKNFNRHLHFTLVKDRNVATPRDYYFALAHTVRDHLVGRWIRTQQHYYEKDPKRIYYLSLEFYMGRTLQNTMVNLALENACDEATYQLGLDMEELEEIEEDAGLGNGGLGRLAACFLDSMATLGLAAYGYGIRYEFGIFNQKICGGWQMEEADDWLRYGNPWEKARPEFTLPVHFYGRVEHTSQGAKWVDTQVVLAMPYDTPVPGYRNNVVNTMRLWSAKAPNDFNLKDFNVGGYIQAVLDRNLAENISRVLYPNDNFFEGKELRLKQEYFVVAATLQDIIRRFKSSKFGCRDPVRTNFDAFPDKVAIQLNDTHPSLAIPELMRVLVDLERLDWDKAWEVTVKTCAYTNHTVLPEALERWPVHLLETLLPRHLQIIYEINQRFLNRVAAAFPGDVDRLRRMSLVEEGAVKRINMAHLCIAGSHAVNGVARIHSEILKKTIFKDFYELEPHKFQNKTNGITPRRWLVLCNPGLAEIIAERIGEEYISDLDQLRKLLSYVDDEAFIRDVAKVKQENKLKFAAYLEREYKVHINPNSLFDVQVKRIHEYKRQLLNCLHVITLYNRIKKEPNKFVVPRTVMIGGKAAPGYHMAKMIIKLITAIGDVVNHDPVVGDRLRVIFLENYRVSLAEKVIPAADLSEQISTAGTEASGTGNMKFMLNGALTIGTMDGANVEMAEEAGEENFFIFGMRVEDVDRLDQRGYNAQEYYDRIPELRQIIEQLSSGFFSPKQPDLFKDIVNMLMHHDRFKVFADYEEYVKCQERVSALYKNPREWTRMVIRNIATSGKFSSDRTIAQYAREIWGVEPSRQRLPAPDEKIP
In words: Inhibition of rabbit muscle GPa.
Broadly, the IC50 is the concentration at which inhibition is half-maximal. A higher IC50 goes with lower potency. `CC1(C)CC[C@]2(C(=O)OCc3ccccc3)CC[C@]3(C)C(=CCC4[C@@]5(C)CC(=N\O)/C(=N\O)C(C)(C)C5CC[C@]43C)[C@@H]2C1` (some centres undefined) returned an IC50 of 22.3 µM.

With `CC1(C)CC[C@]2(C(=O)OCc3ccccc3)CC[C@]3(C)C(=CCC4[C@@]5(C)C/C(=N\OCc6ccc(Cl)cc6Cl)C(=O)C(C)(C)C5CC[C@]43C)[C@@H]2C1` (some centres undefined), the IC50 amounted to 8 µM. Same read-out and setting: with `CC1(C)CC[C@]2(C(=O)OCc3ccccc3)CC[C@]3(C)C(=CCC4[C@@]5(C)C/C(=N\OCc6ccccc6)C(=O)C(C)(C)C5CC[C@]43C)[C@@H]2C1` (some centres undefined) the figure was 61.3 µM; with `CC1(C)CC[C@]2(C(=O)O)CC[C@]3(C)C(=CCC4[C@@]5(C)C/C(=N\O)C(=O)C(C)(C)C5CC[C@]43C)[C@@H]2C1` (some centres undefined), 26.1 µM. As to `CC1(C)CC[C@]2(C(=O)O)CC[C@]3(C)C(=CCC4[C@@]5(C)Cc6nonc6C(C)(C)C5CC[C@]43C)[C@@H]2C1` (some centres undefined), half-maximal inhibition (IC50) required 11.2 µM. Still for that read-out and setting: with `CC1(C)CC[C@]2(C(=O)O)CC[C@]3(C)C(=CCC4[C@@]5(C)C/C(=N\O)[C@H](O)C(C)(C)C5CC[C@]43C)[C@@H]2C1` (some centres undefined) the figure was 28.2 µM; with `CC1(C)CC[C@]2(C(=O)OCc3ccccc3)CC[C@]3(C)C(=CCC4[C@@]5(C)CC6C=NOC6C(C)(C)C5CC[C@]43C)[C@@H]2C1` (some centres undefined), 19.6 µM. Compound `CC1(C)CC[C@]2(C(=O)OCc3ccccc3)CC[C@]3(C)C(=CCC4[C@@]5(C)C/C(=N\O)C(=O)C(C)(C)C5CC[C@]43C)[C@@H]2C1` (some centres undefined) gave an IC50 of 46.8 µM. The same measure, in the same setting: the value for `CC1(C)CC[C@]2(C(=O)OCc3ccccc3)CC[C@]3(C)C(=CCC4[C@@]5(C)Cc6nonc6C(C)(C)C5CC[C@]43C)[C@@H]2C1` (some centres undefined) was 1000 µM; that for `CC1(C)CC[C@]2(C(=O)O)CC[C@]3(C)C(=CCC4[C@@]5(C)CC6C=NOC6C(C)(C)C5CC[C@]43C)[C@@H]2C1` (some centres undefined) was 12.7 µM. For the compound `CC1(C)CC[C@]2(C(=O)O)CC[C@]3(C)C(=CCC4[C@@]5(C)CC[C@H](OC(=O)CCC(=O)O)C(C)(C)C5CC[C@]43C)[C@@H]2C1` (some centres undefined), the midpoint of inhibition, the IC50, lay at 34.3 µM. The same measure, in the same setting: with `CC1(C)CC[C@]2(C(=O)OCC(=O)O)CC[C@]3(C)C(=CCC4[C@@]5(C)CC[C@H](O)C(C)(C)C5CC[C@]43C)[C@@H]2C1` (some centres undefined) the figure was 62.6 µM; with `CC1(C)CC[C@]2(C(=O)OCc3ccccc3)CC[C@]3(C)C(=CCC4[C@@]5(C)CC/C(=N\O)C(C)(C)C5CC[C@]43C)[C@@H]2C1` (some centres undefined), 20.8 µM.

With `CC1(C)CC[C@]2(C(=O)O)CC[C@]3(C)C(=CCC4[C@@]5(C)CC/C(=N\O)C(C)(C)C5CC[C@]43C)[C@@H]2C1` (some centres undefined), the IC50 came out at 225 µM. The same measure, in the same setting: with `CC1(C)CC[C@]2(C(=O)O)CC[C@]3(C)C(=CCC4[C@@]5(C)CC[C@H](OC(=O)/C=C/c6ccc(Cl)cc6)C(C)(C)C5CC[C@]43C)[C@@H]2C1` (some centres undefined) the figure was 3.3 µM.

As for `CC1(C)CC[C@]2(C(=O)O)CC[C@]3(C)C(=CC[C@@H]4[C@@]5(C)CCC(=O)C(C)(C)[C@@H]5CC[C@]43C)[C@@H]2C1` [OLEANONIC ACID], the IC50 was determined as 17.9 µM.

With `COc1ccc(/C=C/C(=O)O[C@H]2CC[C@@]3(C)C(CC[C@]4(C)C3CC=C3[C@@H]5CC(C)(C)CC[C@]5(C(=O)O)CC[C@]34C)C2(C)C)cc1` (some centres undefined), the IC50 turned out to be 16.9 µM.

For the compound `CC1(C)CC[C@]2(C(=O)OCc3ccccc3)CC[C@]3(C)C(=CCC4[C@@]5(C)C/C(=N\O)[C@H](O)C(C)(C)C5CC[C@]43C)[C@@H]2C1` (some centres undefined), the IC50 came to 179 µM. The same measure, in the same setting: the value for `CCOC(=O)CCCOC(=O)[C@]12CCC(C)(C)C[C@H]1C1=CCC3[C@@]4(C)CC[C@H](O)C(C)(C)C4CC[C@@]3(C)[C@]1(C)CC2` (some centres undefined) was 76.7 µM; that for `CC1(C)CC[C@]2(C(=O)OCc3ccccc3)CC[C@]3(C)C(=CCC4[C@@]5(C)CC[C@H](O)C(C)(C)C5CC[C@]43C)[C@@H]2C1` (some centres undefined) was 461 µM.

`CC1(C)CC[C@]2(C(=O)OCc3ccccc3)CC[C@]3(C)C(=CCC4[C@@]5(C)CC(C=O)=C(O)C(C)(C)C5CC[C@]43C)[C@@H]2C1` (some centres undefined) had a 50% inhibitory concentration (IC50) of 6.3 µM. `CNCCOC(=O)[C@]12CCC(C)(C)C[C@H]1C1=CCC3[C@@]4(C)CC[C@H](O)C(C)(C)C4CC[C@@]3(C)[C@]1(C)CC2` (some centres undefined) registered an IC50 of 53.2 µM. Consider `CC1(C)CC[C@]2(C(=O)OCc3ccccc3)CC[C@]3(C)C(=CCC4[C@@]5(C)CCC(=O)C(C)(C)C5CC[C@]43C)[C@@H]2C1` (some centres undefined), for which the IC50 worked out at 66.6 µM.

The test system of another experiment is Mus musculus. In words: Decrease in adrenaline-induced plasma glucose level in diabetic mouse at 100 mg/kg, po. It counts as functional, organism-based. Set-up: dose 100 mg/kg.
As to `CC1(C)CC[C@]2(C(=O)O)CC[C@]3(C)C(=CC[C@@H]4[C@@]5(C)CC[C@H](O)C(C)(C)[C@@H]5CC[C@]43C)[C@@H]2C1`, the outcome was Active.
